Converted amounts (≈) assume the structure as drawn.
Tests used:
Streptococcus pneumoniae [1] = test: Antimicrobial activity against penicillin-resistant Streptococcus pneumoniae 24 by CLSI method; type: functional
Streptococcus pneumoniae [2] = test: Antimicrobial activity against penicillin-resistant Streptococcus pneumoniae 3413 by CLSI method; type: functional
Streptococcus pneumoniae [3] = test: Antimicrobial activity against Streptococcus pneumoniae 1394 by CLSI method; type: functional
Streptococcus pneumoniae [4] = test: Antimicrobial activity against Streptococcus pneumoniae 2688 by CLSI method; type: functional
[5] = target: T1, Penicillin-binding protein 1A (Streptococcus pneumoniae serotype 4 (strain ATCC BAA-334 / TIGR4), UniProt Q04707); test: Displacement of Biocillin FL from Streptococcus pneumoniae 3243 PBP1A
T1 sequence (Q04707 whole entry): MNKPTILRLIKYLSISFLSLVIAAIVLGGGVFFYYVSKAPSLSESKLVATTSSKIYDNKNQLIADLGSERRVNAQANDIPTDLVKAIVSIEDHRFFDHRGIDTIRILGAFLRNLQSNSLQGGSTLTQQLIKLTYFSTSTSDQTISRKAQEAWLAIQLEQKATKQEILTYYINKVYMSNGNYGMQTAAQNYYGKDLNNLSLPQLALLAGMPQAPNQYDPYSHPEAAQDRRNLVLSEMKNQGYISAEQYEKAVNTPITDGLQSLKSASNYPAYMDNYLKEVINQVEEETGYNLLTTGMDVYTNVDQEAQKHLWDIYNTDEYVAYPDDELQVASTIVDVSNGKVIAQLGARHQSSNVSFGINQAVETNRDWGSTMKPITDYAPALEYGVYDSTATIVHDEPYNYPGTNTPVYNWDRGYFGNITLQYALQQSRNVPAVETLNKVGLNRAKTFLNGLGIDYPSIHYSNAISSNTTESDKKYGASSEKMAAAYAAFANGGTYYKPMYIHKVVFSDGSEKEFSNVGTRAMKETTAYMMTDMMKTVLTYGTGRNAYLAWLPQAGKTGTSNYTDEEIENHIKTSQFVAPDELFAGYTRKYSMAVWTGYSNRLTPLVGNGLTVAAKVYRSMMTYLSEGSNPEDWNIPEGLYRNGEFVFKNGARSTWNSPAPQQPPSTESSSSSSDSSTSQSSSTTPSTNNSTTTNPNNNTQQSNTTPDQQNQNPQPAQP

[6] = target: T1, Penicillin-binding protein 1A; test: Displacement of Biocillin FL from Streptococcus pneumoniae 3009 PBP1A
[7] = target: T1, Penicillin-binding protein 1A; test: Displacement of Biocillin FL from Streptococcus pneumoniae 1076 PBP1A
[8] = target: T1, Penicillin-binding protein 1A; test: Displacement of Biocillin FL from Streptococcus pneumoniae 1077 PBP1A
[9] = Displacement of Biocillin FL from Streptococcus pneumoniae 3243 PBP1B
[10] = Displacement of Biocillin FL from Streptococcus pneumoniae 3665 PBP1B
[11] = Displacement of Biocillin FL from Streptococcus pneumoniae 1076 PBP1B
[12] = Displacement of Biocillin FL from Streptococcus pneumoniae 1077 PBP1B
[13] = target: T2, Penicillin-binding protein 2x (Streptococcus pneumoniae serotype 4 (strain ATCC BAA-334 / TIGR4), UniProt P14677); test: Displacement of Biocillin FL from Streptococcus pneumoniae 3413 PBP2X
T2 sequence (P14677 whole entry): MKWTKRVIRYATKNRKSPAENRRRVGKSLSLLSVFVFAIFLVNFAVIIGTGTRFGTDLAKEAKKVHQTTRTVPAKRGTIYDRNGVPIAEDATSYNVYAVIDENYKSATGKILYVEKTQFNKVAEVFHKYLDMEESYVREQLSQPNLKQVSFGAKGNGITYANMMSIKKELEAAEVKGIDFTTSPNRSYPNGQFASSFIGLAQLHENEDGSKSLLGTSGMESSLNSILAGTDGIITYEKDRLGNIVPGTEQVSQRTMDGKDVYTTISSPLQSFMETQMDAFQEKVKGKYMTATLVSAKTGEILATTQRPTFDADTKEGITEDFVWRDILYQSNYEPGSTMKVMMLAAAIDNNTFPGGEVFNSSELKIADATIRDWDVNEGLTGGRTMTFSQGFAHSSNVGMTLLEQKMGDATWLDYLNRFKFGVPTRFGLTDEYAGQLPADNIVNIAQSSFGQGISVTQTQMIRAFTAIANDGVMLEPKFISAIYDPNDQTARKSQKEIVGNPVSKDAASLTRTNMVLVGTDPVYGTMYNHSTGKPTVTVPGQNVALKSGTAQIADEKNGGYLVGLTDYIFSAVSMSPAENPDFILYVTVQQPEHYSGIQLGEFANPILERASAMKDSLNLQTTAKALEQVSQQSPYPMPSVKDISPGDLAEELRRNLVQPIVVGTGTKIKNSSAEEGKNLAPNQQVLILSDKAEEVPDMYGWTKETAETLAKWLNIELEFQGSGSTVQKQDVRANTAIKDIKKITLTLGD

[14] = target: T2, Penicillin-binding protein 2x; test: Displacement of Biocillin FL from Streptococcus pneumoniae 1076 PBP2X
[15] = Displacement of Biocillin FL from Streptococcus pneumoniae 24 PBP2A
[16] = Displacement of Biocillin FL from Streptococcus pneumoniae 3413 PBP2A
[17] = target: T3, Penicillin-binding protein 2B (Streptococcus pneumoniae serotype 4 (strain ATCC BAA-334 / TIGR4), UniProt P0A3M5); test: Displacement of Biocillin FL from Streptococcus pneumoniae 24 PBP2B
T3 sequence (P0A3M5 whole entry): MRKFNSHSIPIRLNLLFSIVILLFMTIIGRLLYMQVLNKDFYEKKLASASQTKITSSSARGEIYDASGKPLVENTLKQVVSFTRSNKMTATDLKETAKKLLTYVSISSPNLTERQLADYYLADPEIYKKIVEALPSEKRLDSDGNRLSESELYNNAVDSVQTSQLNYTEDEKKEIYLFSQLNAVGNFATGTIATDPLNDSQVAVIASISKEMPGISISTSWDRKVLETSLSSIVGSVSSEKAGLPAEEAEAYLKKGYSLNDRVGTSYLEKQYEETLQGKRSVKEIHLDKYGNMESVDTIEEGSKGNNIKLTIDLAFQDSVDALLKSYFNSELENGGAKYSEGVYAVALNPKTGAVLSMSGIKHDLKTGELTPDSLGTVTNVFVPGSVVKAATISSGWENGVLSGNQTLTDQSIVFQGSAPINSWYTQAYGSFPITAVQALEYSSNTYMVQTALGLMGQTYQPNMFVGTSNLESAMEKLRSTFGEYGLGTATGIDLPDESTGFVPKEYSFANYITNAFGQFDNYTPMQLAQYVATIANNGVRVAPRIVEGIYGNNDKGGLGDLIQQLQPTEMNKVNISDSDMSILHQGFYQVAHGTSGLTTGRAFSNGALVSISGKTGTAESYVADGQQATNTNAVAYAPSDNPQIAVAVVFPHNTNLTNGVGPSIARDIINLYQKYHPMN

[18] = target: T3, Penicillin-binding protein 2B; test: Displacement of Biocillin FL from Streptococcus pneumoniae 3676 PBP2B
[19] = target: T3, Penicillin-binding protein 2B; test: Displacement of Biocillin FL from Streptococcus pneumoniae 3665 PBP2B
[20] = target: T3, Penicillin-binding protein 2B; test: Displacement of Biocillin FL from Streptococcus pneumoniae 1076 PBP2B
[21] = Displacement of Biocillin FL from Streptococcus pneumoniae 1076 PBP3

CC1(C)S[C@@H]2[C@H](NC(=O)[C@H](N)c3ccc(O)cc3)C(=O)N2[C@H]1C(=O)O [AMOXICILLIN]
MIC (Streptococcus pneumoniae [1]): 2 µg/mL (≈ 5.47 µM)
MIC (Streptococcus pneumoniae [2]): 2 µg/mL (≈ 5.47 µM)
MIC (Streptococcus pneumoniae [3]): 8 µg/mL (≈ 21.9 µM)
MIC (Streptococcus pneumoniae [4]): 16 µg/mL (≈ 43.8 µM)
IC50 [5]: 161 nM
IC50 [6]: 246 nM
IC50 [7]: 120 nM
IC50 [8]: 46.5 nM
IC50 [9]: 0.165 µg/mL (≈ 0.452 µM)
IC50 [10]: 0.079 µg/mL (≈ 0.216 µM)
IC50 [11]: 0.068 µg/mL (≈ 0.186 µM)
IC50 [12]: 0.006 µg/mL (≈ 0.0164 µM)
IC50 [13]: 170 nM
IC50 [14]: 101 nM
IC50 [15]: 0.077 µg/mL (≈ 0.211 µM)
IC50 [16]: 0.034 µg/mL (≈ 0.093 µM)
IC50 [17]: 482 nM
IC50 [18]: 394 nM
IC50 [19]: 602 nM
IC50 [20]: 151 nM
IC50 [21]: 0.051 µg/mL (≈ 0.14 µM)

CO/N=C(\C(=O)N[C@@H]1C(=O)N2C(C(=O)O)=C(COC(N)=O)CS[C@H]12)c1ccco1 [CEFUROXIME]
MIC (Streptococcus pneumoniae [1]): 2 µg/mL (≈ 4.71 µM)
MIC (Streptococcus pneumoniae [2]): 4 µg/mL (≈ 9.43 µM)
MIC (Streptococcus pneumoniae [3]): 16 µg/mL (≈ 37.7 µM)
MIC (Streptococcus pneumoniae [4]): 4 µg/mL (≈ 9.43 µM)
IC50 [5]: 14.1 nM
IC50 [6]: 23.6 nM
IC50 [7]: 9.43 nM
IC50 [8]: 386 nM
IC50 [9]: 0.075 µg/mL (≈ 0.177 µM)
IC50 [10]: 0.016 µg/mL (≈ 0.0377 µM)
IC50 [11]: 0.008 µg/mL (≈ 0.0189 µM)
IC50 [12]: 0.008 µg/mL (≈ 0.0189 µM)
IC50 [13]: 9.43 nM
IC50 [14]: 4.71 nM
IC50 [15]: 0.016 µg/mL (≈ 0.0377 µM)
IC50 [16]: 0.002 µg/mL (≈ 0.00471 µM)
IC50 [17]: 89.5 nM
IC50 [18]: 1110 nM
IC50 [19]: 34700 nM
IC50 [20]: 403 nM
IC50 [21]: 0.021 µg/mL (≈ 0.0495 µM)

C[C@@H](O)[C@H]1C(=O)N2C(C(=O)O)=C([C@H]3CCCO3)S[C@H]12 [FAROPENEM]
MIC (Streptococcus pneumoniae [1]): 1 µg/mL (≈ 3.5 µM)
MIC (Streptococcus pneumoniae [2]): 1 µg/mL (≈ 3.5 µM)
MIC (Streptococcus pneumoniae [3]): 0.03 µg/mL (≈ 0.105 µM)
MIC (Streptococcus pneumoniae [4]): 0.06 µg/mL (≈ 0.21 µM)
IC50 [5]: 14 nM
IC50 [6]: 35 nM
IC50 [7]: 52.6 nM
IC50 [8]: 52.6 nM
IC50 [9]: 0.001 µg/mL (≈ 0.0035 µM)
IC50 [10]: 0.012 µg/mL (≈ 0.0421 µM)
IC50 [11]: 0.002 µg/mL (≈ 0.00701 µM)
IC50 [12]: 0.005 µg/mL (≈ 0.0175 µM)
IC50 [13]: 1520 nM
IC50 [14]: 221 nM
IC50 [15]: 0.023 µg/mL (≈ 0.0806 µM)
IC50 [16]: 0.007 µg/mL (≈ 0.0245 µM)
IC50 [17]: 116 nM
IC50 [18]: 151 nM
IC50 [19]: 165 nM
IC50 [20]: 45.6 nM
IC50 [21]: 0.015 µg/mL (≈ 0.0526 µM)

C[C@@H](O)[C@H]1C(=O)N2C(C(=O)O)=C(SCCNC=N)C[C@H]12 [IMIPENEM ANHYDROUS]
MIC (Streptococcus pneumoniae [1]): 0.25 µg/mL (≈ 0.835 µM)
MIC (Streptococcus pneumoniae [2]): 0.125 µg/mL (≈ 0.418 µM)
MIC (Streptococcus pneumoniae [3]): 0.25 µg/mL (≈ 0.835 µM)
MIC (Streptococcus pneumoniae [4]): 0.25 µg/mL (≈ 0.835 µM)
IC50 [5]: 608 nM
IC50 [6]: 86.9 nM
IC50 [7]: 301 nM
IC50 [8]: 174 nM
IC50 [9]: 0.108 µg/mL (≈ 0.361 µM)
IC50 [10]: 0.077 µg/mL (≈ 0.257 µM)
IC50 [11]: 0.031 µg/mL (≈ 0.104 µM)
IC50 [12]: 0.106 µg/mL (≈ 0.354 µM)
IC50 [13]: 1430 nM
IC50 [14]: 197 nM
IC50 [15]: 0.352 µg/mL (≈ 1.18 µM)
IC50 [16]: 0.337 µg/mL (≈ 1.13 µM)
IC50 [17]: 441 nM
IC50 [18]: 1320 nM
IC50 [19]: 2170 nM
IC50 [20]: 237 nM
IC50 [21]: 0.032 µg/mL (≈ 0.107 µM)

CC1(C)S[C@@H]2[C@H](NC(=O)Cc3ccccc3)C(=O)N2[C@H]1C(=O)O [PENICILLIN G]
MIC (Streptococcus pneumoniae [1]): 4 µg/mL (≈ 12 µM)
MIC (Streptococcus pneumoniae [2]): 4 µg/mL (≈ 12 µM)
MIC (Streptococcus pneumoniae [3]): 4 µg/mL (≈ 12 µM)
MIC (Streptococcus pneumoniae [4]): 8 µg/mL (≈ 23.9 µM)
IC50 [5]: 23.9 nM
IC50 [6]: 26.9 nM
IC50 [7]: 47.8 nM
IC50 [8]: 26.9 nM
IC50 [9]: 0.01 µg/mL (≈ 0.0299 µM)
IC50 [10]: 0.029 µg/mL (≈ 0.0867 µM)
IC50 [11]: 0.007 µg/mL (≈ 0.0209 µM)
IC50 [12]: 0.005 µg/mL (≈ 0.015 µM)
IC50 [13]: 1920 nM
IC50 [14]: 29.9 nM
IC50 [15]: 0.133 µg/mL (≈ 0.398 µM)
IC50 [16]: 0.015 µg/mL (≈ 0.0449 µM)
IC50 [17]: 332 nM
IC50 [18]: 789 nM
IC50 [19]: 467 nM
IC50 [20]: 179 nM
IC50 [21]: 0.016 µg/mL (≈ 0.0478 µM)

From ChEMBL document CHEMBL1649182, “Binding of faropenem and other beta-lactam agents to penicillin-binding proteins of pneumococci with various beta-lactam susceptibilities” (Antimicrob Agents Chemother, 2009)
